Laboratory results taken from patent US9278940B2, “Cyclic amines as bromodomain inhibitors” (Zenith Epigenetics Corp., priority 2012, dated 2016).
Counter-ions that a name gives are not always drawn.

What was measured:
[1] = target: T1, Brd4 bromodomain 1 (Homo sapiens, UniProt O60885); test: Inhibition of tetra-acetylated histone H4 binding to BET bromodomain (TR-FRET); set-up: key: Active: Compounds with an IC50 value less than 30 μM were deemed to be active.; Not Active: Compounds with an IC50 value less than 30 μM were deemed to be active; settings: Brd4 bromodomain 1, tetra-acetylated histone H4 peptide
T1 construct: made in house; host or cells: E. coli BL21(DE3)
Protocol: Proteins were cloned and overexpressed with a N-terminal 6×His tag, then purified by nickel affinity followed by size exclusion chromatography. Briefly, E. coli BL21(DE3) cells were transformed with a recombinant expression vector encoding N-terminally Nickel affinity tagged bromodomains from Brd2, Brd3, Brd4. Cell cultures were incubated at 37° C. with shaking to the appropriate density and induced overnight with IPTG. The supernatant of lysed cells was loaded onto Ni-IDA column for purification. Eluted protein is pooled, concentrated and further purified by size exclusion chromatography. Fractions representing monomeric protein were pooled, concentrated, aliquoted, and frozen at −80° C. for use in subsequent experiments.
Binding of tetra-acetylated histone H4 and BET bromodomains was confirmed by a Time Resolved Fluorescence Resonance Energy Transfer (TR-FRET) method. N-terminally His-tagged bromodomains (200 nM) and biotinylated tetra-acetylated histone H4 peptide (25-50 nM, Millipore) were incubated in the presence of Europium Cryptate-labeled streptavidin (Cisbio Cat. #610SAKLB) and XL665-labeled monoclonal anti-His antibody (Cisbio Cat. #61HISXLB) in a white 96 well microtiter plate (Greiner). For inhibition assays, serially diluted test compound was added to these reactions in a 0.2% final concentration of DMSO. Final buffer concentrations were 30 mM HEPES pH 7.4, 30 mM NaCl, 0.3 mM CHAPS, 20 mM phosphate pH 7.0, 320 mM KF, 0.08% BSA). After 2 hours incubation at room temperature, the fluorescence by FRET was measured at 665 and 620 nm by a SynergyH4 plate reader (Biotek). The binding inhibitory activity was shown by a decrease in 665 nm fluorescence relative to 620 nm. IC50 values were determined from a dose response curve.

[2] = tested on: c-myc; test: Inhibition of c-myc expression (mRNA, real-time PCR) in MV4-11 cells; format: cell-based; set-up: key: Active: Compounds with an IC50 value less than 30 μM were deemed to be active.; Not Active: Compounds with an IC50 value less than 30 μM were deemed to be active; settings: Human AML MV4-11 cells, 3 hours
Protocol: MV4-11 cells (2.5×10^4 cells) were plated in 96 well U-bottom plates with test compound or DMSO (0.1%), and incubated for 3 hours at 37° C. Cells were then harvested by centrifugation, lysed, and mRNA was isolated using the mRNA catcher plus kit (Invitrogen). Reverse transcription of the mRNA and duplex amplification of the c-myc and cyclophilin cDNAs was performed using the RNA Ultrasense kit (Invitrogen) and a ViiA7 real-time PCR machine (Applied Biosystems). IC50 values were determined from a dose response curve.

[3] = tested on: Human AML MV-4-11 cells; test: Inhibition of cell proliferation in MV4-11 cells; format: cell-based; set-up: key: Active: Compounds with an IC50 value less than 30 μM are deemed to be active.; Not Active: Compounds with an IC50 value less than 30 μM are deemed to be active; settings: 72 hours
Protocol: MV4-11 cells: 96-well plates were seeded with 5×10^4 cells per well of exponentially growing human AML MV-4-11 (CRL-9591) cells and immediately treated with two-fold dilutions of test compounds, ranging from 30 μM to 0.2 μM. Triplicate wells were used for each concentration, as well as a media only and three DMSO control wells. The cells and compounds were incubated at 37° C., 5% CO2 for 72 hours before adding 20 μL of the CellTiter Aqueous One Solution (Promega) to each well and incubating at 37° C., 5% CO2 for an additional 3-4 hours. The absorbance was taken at 490 nm in a spectrophotometer and the percentage of proliferation relative to DMSO-treated cells was calculated after correction from the blank well. IC50 were calculated using the GraphPad Prism software.

[4] = tested on: hIL-6 mRNA; test: Inhibition of hIL-6 mRNA transcription in LPS-stimulated U937 macrophages; format: cell-based, human; set-up: key: Active: Compounds with an IC50 value less than 30 μM are deemed to be active.; Not Active: Compounds with an IC50 value less than 30 μM are deemed to be active; settings: U937 cells differentiated with PMA, 1 h pretreatment, LPS 3 h
Protocol: In this example, hIL-6 mRNA in tissue culture cells was quantitated to measure the transcriptional inhibition of hIL-6 when treated with a compound of the present disclosure.
A human leukemic monocyte lymphoma cell line (U937) was plated (3.2×10^4 cells per well) in a 96-well plate in […] RPMI-1640 containing 10% FBS and penicillin/streptomycin, and differentiated into macrophages for 3 days in 60 ng/mL PMA ([…]) at 37° C. in 5% CO2 prior to the addition of the compound of interest. The cells were pretreated for 1 h with the test compound prior to stimulation with 1 ug/mL lipopolysaccharide from Escherichia coli. The cells were incubated at 37-C for 3 h before the cells were harvested. At time of harvest, the spent media was removed from the cells and the cells were rinsed in 200 μL PBS. Cell lysis solution (70 μL) was added the cells in each well and incubated for 5-10 min at room temperature, to allow for complete cell lysis and detachment. mRNA was then prepared using the “mRNA Catcher PLUS plate” (Invitrogen), according to the protocol supplied. After the last wash, as much wash buffer as possible was aspirated without allowing the wells to dry. Elution buffer (E3, 70 μL) was then added to each well. mRNA was then eluted by incubating the mRNA Catcher PLUS plate with Elution Buffer for 5 min at 68° C. and then immediately placing the plate on ice.
The eluted mRNA isolated was then used in a one-step quantitative real-time PCR reaction, using components of the Ultra Sense Kit together with Applied Biosystems primer-probe mixes. Real-time PCR data was analyzed, normalizing the Ct values for hIL-6 to an internal control, prior to determining the fold induction of each unknown sample, relative to the control.

[5] = tested on: hApoA-1 mRNA; test: Up-regulation of hApoA-1 mRNA transcription in Huh7 cells; format: cell-based, human; set-up: key: Active: Compounds with an EC170 value less than 30 μM are deemed to be active.; Not Active: Compounds with an EC170 value less than 30 μM are deemed to be active; settings: 48 hrs treatment, ApoA-I mRNA
Protocol: In this example, ApoA-I mRNA in tissue culture cells was quantitated to measure the transcriptional up-regulation of ApoA-I when treated with a compound of the present disclosure.
Huh7 cells ([…] per well) were plated in a 96-well plate using 100 μL DMEM per well, (Gibco DMEM supplemented with penicillin/streptomycin and 10% FBS), 24 h before the addition of the compound of interest. After 48 hrs treatment, the spent media was removed from the Huh-7 cells and placed on ice (for immediate use) or at −80° C. (for future use) with the “LDH cytotoxicity assay Kit II” from Abcam. The cells remaining in the plate were rinsed with 100 μL PBS.
Then 85 μL of cell lysis solution was added to each well and incubated for 5-10 minutes at room temperature, to allow for complete cell lysis and detachment. mRNA was then prepared using the “mRNA Catcher PLUS plate” from Life Technologies, according to the protocol supplied. After the last wash, as much wash buffer as possible was aspirated without allowing the wells to dry. Elution Buffer (E3, 80 μL) was then added to each well. mRNA was then eluted by incubating the mRNA Catcher PLUS plate with Elution Buffer for 5 minutes at 68° C., and then 1 minute at 4° C. Catcher plates with mRNA eluted were kept on ice for use or stored at −80° C.
The eluted mRNA isolated was then used in a one-step real-time PCR reaction, using components of the Ultra Sense Kit together with Life Technologies primer-probe mixes. Real-time PCR data was analyzed, using the Ct values, to determine the fold induction of each unknown sample, relative to the control (that is, relative to the control for each independent DMSO concentration).
Compounds with an EC170 value less than 30 μM are deemed to be active.

SMILES | FRET activity (IC50 < 30 μM) [1] | c-myc activity (IC50 < 30 μM) [2] | cell proliferation activity (IC50 < 30 μM) [3] | IL-6 activity (IC50 < 30 μM) [4] | ApoA-1 activity (EC170 < 30 μM) [5]
COc1cc(OC)c2c(=O)[nH]c(-c3cccc(N4CCN(CCS(C)(=O)=O)CC4)n3)nc2c1 [Example 6, 5,7-Dimethoxy-2-(6-(4-(2-(methylsulfonyl)ethyl)piperazin-1-yl)pyridin-2-yl)quinazazolin-4(3H)-one] | Active | Not Active | Not Active | Active | Active
COc1cc(OC)c2c(=O)[nH]c(-c3cc(OC(F)(F)F)cc(N4CCN(C(C)C)CC4)c3)nc2c1 [Example 20, 2-(3-(4-Isopropylpiperazin-1-yl)-5-(trifluoromethoxy)phenyl)-5,7-dimethoxyquinazolin-4(3H)-one] | Active | Not Active | Not Active | Active | 
COc1cc(F)cc2nc(-c3cccc(N4CCN(C(C)C)CC4)n3)[nH]c(=O)c12 [Example 21, 7-Fluoro-2-(6-(4-isopropylpiperazin-1-yl)pyridin-2-yl)-5-methoxyquinazolin-4(3H)-one Hydrochloride] | Active | Active | Active | Active | 
COc1cc(OCc2ccccc2)cc2nc(-c3cccc(N4CCN(C(C)C)CC4)n3)[nH]c(=O)c12 [Example 22, 7-(Benzyloxy)-2-(6-(4-isopropylpiperazin-1-yl)pyridin-2-yl)-5-methoxyquinazolin-4(3H)-one Hydrochloride] | Active | Active | Active | Active | 
COc1cc(N2CCN(C(C)C)CC2)cc2nc(-c3cccc(N4CCN(C(C)C)CC4)n3)[nH]c(=O)c12 [Example 23, 7-(4-Isopropylpiperazin-1-yl)-2-(6-(4-isopropylpiperazin-1-yl)pyridin-2-yl)-5-methoxyquinazolin-4(3H)-one Hydrochloride] | Active | Active | Active | Not Active | 
COc1cc(-c2ccccc2)cc2nc(-c3cccc(N4CCN(C(C)C)CC4)n3)[nH]c(=O)c12 [Example 25, 2-(6-(4-Isopropylpiperazin-1-yl)pyridin-2-yl)-5-methoxy-7-phenylquinazolin-4(3H)-one] | Active |  |  | Not Active | 
COc1ccc(OCc2ccccc2)c2nc(-c3cccc(N4CCN(C(C)C)CC4)c3)[nH]c(=O)c12 [Example 26, 8-(Benzyloxy)-2-(3-(4-isopropylpiperazin-1-yl)phenyl)-5-methoxyquinazolin-4(3H)-one] | Active | Not Active | Not Active | Not Active | 

The next lines start with results.

FRET activity (IC50 < 30 μM) [1] | c-myc activity (IC50 < 30 μM) [2] | cell proliferation activity (IC50 < 30 μM) [3] | IL-6 activity (IC50 < 30 μM) [4] | SMILES | ApoA-1 activity (EC170 < 30 μM) [5]
Active | Not Active | Not Active | Active | COc1cc(OC)c2c(=O)[nH]c(-c3cccc(N4CCOCC4)n3)nc2c1 [Example 16, 5,7-Dimethoxy-2-(6-morpholinopyridin-2-yl)quinazolin-4(3H)-one Hydrochloride] | 
Not Active |  |  | Not Active | COc1cc(OC)c2c(=O)[nH]c(-c3cccc(N4CCN(S(C)(=O)=O)CC4)n3)nc2c1 [Example 18, 5,7-Dimethoxy-2-(6-(4-(methylsulfonyl)piperazin-1-yl)pyridin-2-yl)quinazolin-4(3H)-one Hydrochloride] | 
Active | Active | Active | Active | COc1cc(OC)c2c(=O)[nH]c(-c3cccc(N4CCN(C(=O)NC(C)C)CC4)n3)nc2c1 [Example 27, 4-(6-(5,7-Dimethoxy-4-oxo-3,4-dihydroquinazolin-2-yl)pyridin-2-yl)-N-isopropylpiperazine-1-carboxamide Hydrochloride] | 
Not Active |  |  |  | COc1cc(OC)c2c(=O)[nH]c(-c3cccc(N4CCN(C(C)C)CC4=O)n3)nc2c1 [Example 28, 2-(6-(4-Isopropyl-2-oxopiperazin-1-yl)pyridin-2-yl)-5,7-dimethoxyquinazolin-4(3H)-one Hydrochloride] | Not Active
Not Active | Not Active | Not Active | Active | COc1cc(OC)c2c(=O)[nH]c(-c3cccc(N4CCN(C)C(=O)C4)n3)nc2c1 [Example 30, 5,7-Dimethoxy-2-(6-(4-methyl-3-oxopiperazin-1-yl)pyridin-2-yl)quinazolin-4(3H)-one] | 
